Read-outs that look alike come from different tables or passages of the source.
Key:
[1] = system: NCI-H460, human non-small cell lung carcinoma cells; experiment: Proliferation assay, NCI-H460 (crystal violet); type: cell-based; conditions: NCI-H460, 4 days, read-out: Inhibition of NCI-H460 cell proliferation IC50
Method: (§1) Cultivated tumour cells (HeLa, human cervical tumour cells, ATCC CCL-2; NCI-H460, human non-small cell lung carcinoma cells, ATCC HTB-177; A2780, human ovarian carcinoma cells, ECACC #93112519; DU 145, hormone-independent human prostate carcinoma cells, ATCC HTB-81; HeLa-MaTu-ADR, multidrug-resistant human cervical carcinoma cells, EPO-GmbH Berlin; Caco-2, human colorectal carcinoma cells, ATCC HTB-37; B16F10, mouse melanoma cells, ATCC CRL-6475) were plated at a density of 5,000 cells/well (DU145, HeLa-MaTu-ADR), 3,000 cells/well (NCI-H460, HeLa), 2,500 cells/well (A2780), 1,500 cells/well (Caco-2), or 1,000 cells/well (B16F10) in a 96-well multititer plate in 200 μL of their respective growth medium supplemented 10% fetal calf serum. After 24 hours, the cells of one plate (zero-point plate) were stained with crystal violet (see below), while the medium of the other plates was replaced by fresh culture medium (200 μl), to which the test substances were added in various concentrations (0 μM, as well as in the range of 0.001-10 μM; the final concentration of the solvent dimethyl sulfoxide was 0.5%). The cells were incubated for 4 days in the presence of test substances. Cell proliferation was determined by staining the cells with crystal violet: the cells were fixed by adding 20 μl/measuring point of an 11% glutaric aldehyde solution for 15 minutes at room temperature. After three washing cycles of the fixed cells with water, the plates were dried at room temperature. The cells were stained by adding 100 μl/measuring point of a 0.1% crystal violet solution (pH 3.0). After three washing cycles of the stained cells with water, the plates were dried at room temperature. The dye was dissolved by adding 100 μl/measuring point of a 10% acetic acid solution. The extinction was determined by photometry at a wavelength of 595 nm. The change of cell number, in percent, was calculated by normalization of the measured values to the extinction values of the zero-point plate (=0%) and the extinction of the untreated (0 μm) cells (=100%). The IC50 values (inhibitory concentration at 50% of maximal effect) were determined by means of a 4 parameter fit. Non-adherent MOLM-13 human acute myeloid leukemia cells (DSMZ ACC 554) were seeded at a density of 5,000 cells/well in a 96-well multititer plate in 100 μL of growth medium supplemented 10% fetal calf serum. After 24 hours, cell viability of one plate (zero-point plate) was determined with the Cell Titre-Glo Luminescent Cell Viability Assay (Promega), while 50 μL of test compound containing medium was added to the wells of the other plates (final concentrations in the range of 0.001-10 μM and DMSO controls; the final concentration of the solvent dimethyl sulfoxide was 0.5%). Cell viability was assessed after 72-hour exposure with the Cell Titre-Glo Luminescent Cell Viability Assay (Promega).

[2] = system: DU 145, hormone-independent human prostate carcinoma cells; experiment: Proliferation assay, DU145 (crystal violet); type: cell-based; conditions: DU145, 4 days, read-out: Inhibition of DU145 cell proliferation IC50
Method: as §1

CDK9/CycT1 = molecular target: T1, CDK9/CycT1 (Homo sapiens, UniProt P50750); experiment: CDK9/CycT1 kinase assay (TR-FRET, 10 μM ATP); type: biochemical; conditions: Method 1a
T1 construct: Recombinant full-length His-tagged human CDK9 and CycT1; His; purchased Invitrogen PV4131; host or cells: insect cells
T1 sequence (P50750 whole entry): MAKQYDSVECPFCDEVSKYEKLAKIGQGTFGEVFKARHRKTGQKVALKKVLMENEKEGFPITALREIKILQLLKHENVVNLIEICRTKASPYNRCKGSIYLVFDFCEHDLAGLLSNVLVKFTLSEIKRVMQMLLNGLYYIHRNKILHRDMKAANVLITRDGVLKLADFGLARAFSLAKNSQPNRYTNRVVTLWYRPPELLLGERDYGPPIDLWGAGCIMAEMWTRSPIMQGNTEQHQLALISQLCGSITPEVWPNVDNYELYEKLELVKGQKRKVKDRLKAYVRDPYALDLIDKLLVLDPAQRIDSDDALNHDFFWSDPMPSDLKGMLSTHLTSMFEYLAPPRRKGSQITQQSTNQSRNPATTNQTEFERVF
T1 sequence (O60563 whole entry partner): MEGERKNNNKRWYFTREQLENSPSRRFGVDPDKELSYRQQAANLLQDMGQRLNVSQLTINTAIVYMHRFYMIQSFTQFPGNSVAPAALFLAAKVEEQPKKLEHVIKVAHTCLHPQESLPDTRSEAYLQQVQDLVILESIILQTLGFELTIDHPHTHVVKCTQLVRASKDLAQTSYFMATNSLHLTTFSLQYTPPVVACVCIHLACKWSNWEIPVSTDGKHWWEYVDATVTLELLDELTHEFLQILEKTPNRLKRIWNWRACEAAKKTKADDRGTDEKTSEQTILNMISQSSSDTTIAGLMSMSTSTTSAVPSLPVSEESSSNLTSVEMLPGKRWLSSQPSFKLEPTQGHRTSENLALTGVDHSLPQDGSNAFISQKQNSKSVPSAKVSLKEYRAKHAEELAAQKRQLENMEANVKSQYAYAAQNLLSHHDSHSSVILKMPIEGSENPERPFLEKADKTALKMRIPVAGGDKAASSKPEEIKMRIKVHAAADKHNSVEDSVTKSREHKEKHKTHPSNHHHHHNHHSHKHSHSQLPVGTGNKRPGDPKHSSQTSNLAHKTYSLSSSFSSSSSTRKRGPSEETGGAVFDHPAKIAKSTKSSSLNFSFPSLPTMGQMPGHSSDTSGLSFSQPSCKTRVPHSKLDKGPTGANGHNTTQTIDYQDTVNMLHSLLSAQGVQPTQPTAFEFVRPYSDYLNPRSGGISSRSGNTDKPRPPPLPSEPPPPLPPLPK
Source text: 1a. CDK9/CyeT1 Kinase Assay:
CDK9/CycT1-inhibitory activity of compounds of the present invention was quantified employing the CDK9/CycT1 TR-FRET assay as described in the following paragraphs:
Recombinant full-length His-tagged human CDK9 and CycT1, expressed in insect cells and purified by Ni-NTA affinity chromatography, were purchased from Invitrogen (Cat. No PV4131). As substrate for the kinase reaction biotinylated peptide biotin-Ttds-[…] (C-terminus in amid form) was used which can be purchased e.g. form the company JERINI Peptide Technologies (Berlin, Germany). For the assay 50 nl of a 100 fold concentrated solution of the test compound in DMSO was pipetted into a black low volume 384 well microtiter plate (Greiner Bio-One, Frickenhausen, Germany), 2 μl of a solution of CDK9/CycT1 in aqueous assay buffer [50 mM Tris/HCl pH 8.0, 10 mM MgCl2, 1.0 mM dithiothreitol, 0.1 mM sodium ortho-vanadate, 0.01% (v/v) Nonidet-P40 (Sigma)] were added and the mixture was incubated for 15 min at 22° C. to allow pre-binding of the test compounds to the enzyme before the start of the kinase reaction.
The resulting mixture was incubated 1 h at 22° C. to allow the formation of complex between the phosphorylated biotinylated peptide and the detection reagents. Subsequently the amount of phosphorylated substrate was evaluated by measurement of the resonance energy transfer from the Eu-chelate to the streptavidine-XL.

IC50 ([1]; Homo sapiens, NCI-H460, 96 h) [nM] | IC50 ([2]; Homo sapiens, DU-145, 96 h) [nM] | IC50 (CDK9/CycT1) [nM] | IC50 [1] [nM] | IC50 [2] [nM] | Compound
32 | 31 | 2 | – | – | CCOC(=O)N=S(C)(=O)Cc1cc(Nc2cc(-c3ccc(F)cc3OC)c(F)cn2)nc(OC)c1 (racemic) [Example 15, (rac)-ethyl{[(2-{[5-fluoro-4-(4-fluoro-2-methoxyphenyl)pyridin-2-yl]amino}-6-methoxypyridin-4-yl)methyl](methyl)oxido-λ^6-sulfanylidene}carbamate]
45 | 48 | 0.9 | – | – | COc1cc(F)ccc1-c1cc(Nc2cc(CS(C)(=N)=O)cc(F)n2)ncc1F (racemic) [Example 17, (rac)-5-Fluoro-4-(4-fluoro-2-methoxyphenyl)-N-{6-fluoro-4-[(S-methylsulfonimidoyl)methyl]pyridin-2-yl}pyridin-2-amine]
110 | 41 | 3 | – | – | COc1cc(F)ccc1-c1cc(Nc2cc(CS(C)(=O)=NC(=O)C(F)(F)F)cc(F)n2)ncc1F (racemic) [Example 18, (rac)-2,2,2-Trifluoro-N-{[(2-fluoro-6-{[5-fluoro-4-(4-fluoro-2-methoxyphenyl)pyridin-2-yl]amino}pyridin-4-yl)methyl](methyl)oxido-λ^6-sulfanylidene}acetamide]
33 | 30 | 2 | – | – | COc1cc(F)ccc1-c1cc(Nc2cc(CS(C)(=N)=O)cc(C(F)(F)F)n2)ncc1F (racemic) [Example 21, (rac)-5-Fluoro-4-(4-fluoro-2-methoxyphenyl)-N-{4-[(S-methylsulfonimidoyl)methyl]-6-(trifluoromethyl)pyridin-2-yl}pyridin-2-amine]
120 | 110 | 3 | – | – | CCOc1cc(F)ccc1-c1cc(Nc2cc(CS(C)(=N)=O)cc(F)n2)ncc1F (racemic) [Example 26, (rac)-4-(2-Ethoxy-4-fluorophenyl)-5-fluoro-N-{6-fluoro-4-[(S-methylsulfonimidoyl)methyl]pyridin-2-yl}pyridin-2-amine]
120 | 110 | 9 | – | – | CCOc1cc(F)ccc1-c1cc(Nc2cc(CS(C)(=O)=NC(=O)C(F)(F)F)cc(F)n2)ncc1F (racemic) [Example 27, (rac)-N-{[(2-{[4-(2-Ethoxy-4-fluoro-phenyl)-5-fluoropyridin-2-yl]amino}-6-fluoropyridin-4-yl)methyl]-(methyl)oxido-λ^6-sulfanylidene}-2,2,2-trifluoroacetamide]
120 | 82 | 3 | – | – | CCS(=N)(=O)Cc1ccnc(Nc2cc(-c3ccc(F)cc3OC)c(F)cn2)c1 (racemic) [Example 30, (rac)-N-{4-[(S-Ethylsulfonimidoyl)-methyl]pyridin-2-yl}-5-fluoro-4-(4-fluoro-2-methoxyphenyl)pyridin-2-amine]
39 | 34 | 4 | – | – | COc1cc(F)ccc1-c1cc(Nc2cc(CS(C)(=O)=NC#N)ccn2)ncc1F (single isomer, unassigned) [Example 10, {[(2-{[5-Fluoro-4-(4-fluoro-2-methoxyphenyl)pyridin-2-yl]amino}pyridin-4-yl)methyl](methyl)oxido-λ^6-sulfanylidene}cyanamide]
110 | 58 | 5 | – | – | COc1cc(F)ccc1-c1cc(Nc2cc(CS(C)(=N)=O)cc(F)n2)ncc1F (single isomer, unassigned; (+)) [Example 19, (+)-5-Fluoro-4-(4-fluoro-2-methoxyphenyl)-N-{6-fluoro-4-[(S-methylsulfonimidoyl)methyl]pyridin-2-yl}pyridin-2-amine]
34 | 32 | 2 | – | – | COc1cc(F)ccc1-c1cc(Nc2cc(CS(C)(=N)=O)cc(C(F)(F)F)n2)ncc1F (single isomer, unassigned; (+)) [Example 22, (+)-5-Fluoro-4-(4-fluoro-2-methoxyphenyl)-N-{4-[(S-methylsulfonimidoyl)methyl]-6-(trifluoromethyl)pyridin-2-yl}pyridin-2-amine]
33 | 33 | 18 | – | – | COc1cc(F)ccc1-c1cc(Nc2cc(CS(C)(=O)=NC(=O)C(F)(F)F)cc(C(F)(F)F)n2)ncc1F (single isomer, unassigned; (+)) [Example 24, (+)-2,2,2-Trifluoro-N-[{[2-{[5-fluoro-4-(4-fluoro-2-methoxyphenyl)pyridin-2-yl]amino}-6-(trifluoromethyl)-pyridin-4-yl]methyl}(methyl)oxido-λ^6-sulfanylidene]acetamide]
190 | 120 | 5 | – | – | CCOc1cc(F)ccc1-c1cc(Nc2cc(CS(C)(=N)=O)cc(F)n2)ncc1F (single isomer, unassigned; (+)) [Example 28, (+)-4-(2-Ethoxy-4-fluorophenyl)-5-fluoro-N-{6-fluoro-4-[(S-methylsulfonimidoyl)methyl]pyridin-2-yl}pyridin-2-amine]
– | – | 2 | 100 | 58 | COc1cc(F)ccc1-c1cc(Nc2cc(CS(C)(=N)=O)cc(F)n2)ncc1F (single isomer, unassigned; (-)) [Example 20, (−)-5-Fluoro-4-(4-fluoro-2-methoxyphenyl)-N-{6-fluoro-4-[(S-methylsulfonimidoyl)methyl]pyridin-2-yl}pyridin-2-amine]
– | – | 15 | 36 | 37 | COc1cc(F)ccc1-c1cc(Nc2cc(CS(C)(=O)=NC(=O)C(F)(F)F)cc(C(F)(F)F)n2)ncc1F (single isomer, unassigned; (-)) [Example 25, (−)-2,2,2-Trifluoro-N-[{[2-{[5-fluoro-4-(4-fluoro-2-methoxyphenyl)pyridin-2-yl]amino}-6-(trifluoromethyl)-pyridin-4-yl]methyl}(methyl)oxido-λ^6-sulfanylidene]acetamide]
– | – | 3 | 150 | 110 | CCOc1cc(F)ccc1-c1cc(Nc2cc(CS(C)(=N)=O)cc(F)n2)ncc1F (single isomer, unassigned; (-)) [Example 29, (−)-4-(2-Ethoxy-4-fluorophenyl)-5-fluoro-N-{6-fluoro-4-[(S-methylsulfonimidoyl)methyl]pyridin-2-yl}pyridin-2-amine]

Source: patent US9650340B2, “5-fluoro-N-(pyridin-2-yl)pyridin-2-amine derivatives containing a sulfoximine group” (BAYER PHARMA AKTIENGESELLSCHAFT, priority 2012, dated 2017)
